Patent publication US6054429A (priority 1996, dated 2000)
Bridge positions count the residues as written; N and C are the ends. Square brackets hold non-standard residues; d marks the D form. Peptide text beside a SMILES is read from it. Hyp = O=C(O)[C@@H]1C[C@@H](O)CN1

Biological target: calcium channels in N1E115 mouse neuroblastoma cells (Mus musculus, UniProt O55017)
Type: cell-based

Chain of calcium channels in N1E115 mouse neuroblastoma cells (O55017 whole entry): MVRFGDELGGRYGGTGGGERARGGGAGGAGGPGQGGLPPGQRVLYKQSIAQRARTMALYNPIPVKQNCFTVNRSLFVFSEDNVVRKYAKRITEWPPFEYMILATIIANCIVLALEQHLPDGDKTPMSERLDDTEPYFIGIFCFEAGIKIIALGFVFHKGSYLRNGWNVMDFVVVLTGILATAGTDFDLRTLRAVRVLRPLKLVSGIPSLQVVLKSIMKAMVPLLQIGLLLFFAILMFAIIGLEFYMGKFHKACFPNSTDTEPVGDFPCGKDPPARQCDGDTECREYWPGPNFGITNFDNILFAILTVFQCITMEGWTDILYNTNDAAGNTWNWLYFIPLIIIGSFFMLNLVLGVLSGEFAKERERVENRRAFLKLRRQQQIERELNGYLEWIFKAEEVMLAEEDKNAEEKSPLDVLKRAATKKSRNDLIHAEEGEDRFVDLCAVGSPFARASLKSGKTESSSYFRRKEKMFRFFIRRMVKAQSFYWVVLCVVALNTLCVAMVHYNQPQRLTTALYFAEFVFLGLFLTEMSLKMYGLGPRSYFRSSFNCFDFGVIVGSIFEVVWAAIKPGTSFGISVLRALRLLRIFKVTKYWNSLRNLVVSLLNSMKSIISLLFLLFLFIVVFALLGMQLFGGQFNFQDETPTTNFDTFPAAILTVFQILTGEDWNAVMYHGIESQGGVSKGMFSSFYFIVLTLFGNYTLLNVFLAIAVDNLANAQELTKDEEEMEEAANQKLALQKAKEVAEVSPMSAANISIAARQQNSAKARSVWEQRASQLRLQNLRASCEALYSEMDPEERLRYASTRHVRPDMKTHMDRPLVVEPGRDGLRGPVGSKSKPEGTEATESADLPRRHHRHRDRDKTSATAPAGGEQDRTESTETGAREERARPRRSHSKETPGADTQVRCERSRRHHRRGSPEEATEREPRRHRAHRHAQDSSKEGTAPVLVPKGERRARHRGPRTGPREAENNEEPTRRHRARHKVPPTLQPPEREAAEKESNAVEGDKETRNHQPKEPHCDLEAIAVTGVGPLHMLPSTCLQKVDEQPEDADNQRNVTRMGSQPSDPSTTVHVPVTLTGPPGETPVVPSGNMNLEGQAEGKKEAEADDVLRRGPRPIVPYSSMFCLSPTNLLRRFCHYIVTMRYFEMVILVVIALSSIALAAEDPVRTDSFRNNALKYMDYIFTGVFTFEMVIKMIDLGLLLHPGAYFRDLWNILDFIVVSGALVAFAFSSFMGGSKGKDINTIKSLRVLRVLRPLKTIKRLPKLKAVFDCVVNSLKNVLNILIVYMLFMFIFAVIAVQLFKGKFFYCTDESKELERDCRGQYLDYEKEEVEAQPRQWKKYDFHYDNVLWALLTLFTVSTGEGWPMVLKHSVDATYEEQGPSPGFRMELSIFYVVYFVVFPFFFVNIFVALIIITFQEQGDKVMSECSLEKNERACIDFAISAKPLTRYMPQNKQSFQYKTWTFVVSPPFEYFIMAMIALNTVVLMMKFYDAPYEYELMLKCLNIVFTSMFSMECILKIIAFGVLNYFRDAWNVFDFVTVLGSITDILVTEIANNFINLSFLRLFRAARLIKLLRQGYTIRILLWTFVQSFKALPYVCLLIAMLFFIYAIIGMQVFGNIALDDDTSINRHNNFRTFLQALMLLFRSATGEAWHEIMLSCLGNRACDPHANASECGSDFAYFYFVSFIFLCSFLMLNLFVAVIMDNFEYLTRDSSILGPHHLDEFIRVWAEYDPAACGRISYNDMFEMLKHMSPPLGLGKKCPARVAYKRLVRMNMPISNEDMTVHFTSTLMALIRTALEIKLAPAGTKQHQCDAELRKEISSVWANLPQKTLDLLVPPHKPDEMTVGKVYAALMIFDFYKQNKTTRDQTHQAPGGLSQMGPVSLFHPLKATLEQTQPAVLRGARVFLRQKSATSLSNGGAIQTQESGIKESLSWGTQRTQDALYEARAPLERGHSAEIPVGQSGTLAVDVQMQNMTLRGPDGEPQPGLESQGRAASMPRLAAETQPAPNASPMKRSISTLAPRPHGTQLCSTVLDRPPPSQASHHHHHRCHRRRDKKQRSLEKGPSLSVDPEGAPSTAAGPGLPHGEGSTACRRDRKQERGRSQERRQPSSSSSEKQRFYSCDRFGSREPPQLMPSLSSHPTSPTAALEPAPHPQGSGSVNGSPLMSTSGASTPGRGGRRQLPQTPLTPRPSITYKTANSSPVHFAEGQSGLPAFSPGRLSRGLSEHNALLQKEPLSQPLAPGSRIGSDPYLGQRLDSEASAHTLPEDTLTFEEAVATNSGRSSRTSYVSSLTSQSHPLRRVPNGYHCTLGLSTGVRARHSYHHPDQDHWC
Chain of calcium channels in N1E115 mouse neuroblastoma cells (P54285 whole entry partner): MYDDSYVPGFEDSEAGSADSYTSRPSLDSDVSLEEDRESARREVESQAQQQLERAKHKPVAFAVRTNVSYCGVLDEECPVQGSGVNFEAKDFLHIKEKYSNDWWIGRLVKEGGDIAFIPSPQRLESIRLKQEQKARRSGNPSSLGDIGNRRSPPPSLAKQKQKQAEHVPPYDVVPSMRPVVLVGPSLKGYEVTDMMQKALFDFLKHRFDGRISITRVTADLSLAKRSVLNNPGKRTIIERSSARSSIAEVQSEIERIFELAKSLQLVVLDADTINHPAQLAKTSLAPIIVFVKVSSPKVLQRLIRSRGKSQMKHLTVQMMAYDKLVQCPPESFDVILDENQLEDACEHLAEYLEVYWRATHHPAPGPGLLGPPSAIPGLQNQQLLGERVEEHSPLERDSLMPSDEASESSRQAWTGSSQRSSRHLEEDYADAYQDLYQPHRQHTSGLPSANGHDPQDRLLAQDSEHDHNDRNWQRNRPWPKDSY
Chain of calcium channels in N1E115 mouse neuroblastoma cells (O08532 25-956 partner limits assumed): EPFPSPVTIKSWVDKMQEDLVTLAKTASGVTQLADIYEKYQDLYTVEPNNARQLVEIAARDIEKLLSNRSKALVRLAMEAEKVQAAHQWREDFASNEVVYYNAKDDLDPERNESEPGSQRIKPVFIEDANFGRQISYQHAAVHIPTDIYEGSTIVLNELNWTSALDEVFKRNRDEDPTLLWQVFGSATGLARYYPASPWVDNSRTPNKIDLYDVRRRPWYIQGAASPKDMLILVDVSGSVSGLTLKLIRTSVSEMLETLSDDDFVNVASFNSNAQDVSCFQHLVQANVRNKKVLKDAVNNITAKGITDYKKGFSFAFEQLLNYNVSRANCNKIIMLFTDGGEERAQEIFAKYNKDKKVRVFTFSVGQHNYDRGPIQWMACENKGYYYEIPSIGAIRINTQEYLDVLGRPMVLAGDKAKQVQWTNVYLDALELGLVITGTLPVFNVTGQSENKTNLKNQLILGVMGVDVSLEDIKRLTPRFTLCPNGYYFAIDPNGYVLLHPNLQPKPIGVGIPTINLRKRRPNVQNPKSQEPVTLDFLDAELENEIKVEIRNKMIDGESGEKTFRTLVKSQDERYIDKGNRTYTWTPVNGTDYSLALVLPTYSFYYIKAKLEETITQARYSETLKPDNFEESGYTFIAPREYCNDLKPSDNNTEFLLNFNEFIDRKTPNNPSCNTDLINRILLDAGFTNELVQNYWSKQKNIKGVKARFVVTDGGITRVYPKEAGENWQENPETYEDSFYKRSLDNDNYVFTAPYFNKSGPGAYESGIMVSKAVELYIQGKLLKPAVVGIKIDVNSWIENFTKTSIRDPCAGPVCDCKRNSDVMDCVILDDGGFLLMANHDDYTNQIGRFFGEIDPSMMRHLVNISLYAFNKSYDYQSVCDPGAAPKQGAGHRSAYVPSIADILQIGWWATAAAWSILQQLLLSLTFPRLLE
Chain of calcium channels in N1E115 mouse neuroblastoma cells (O08532 957-1103 partner limits assumed): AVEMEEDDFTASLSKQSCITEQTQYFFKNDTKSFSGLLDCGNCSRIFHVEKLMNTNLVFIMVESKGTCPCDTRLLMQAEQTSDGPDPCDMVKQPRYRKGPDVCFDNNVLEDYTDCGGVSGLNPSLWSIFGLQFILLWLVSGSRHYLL

CC[C@H](C)[C@@H]1NC(=O)[C@H](CO)NC(=O)[C@H]([C@@H](C)O)NC(=O)[C@H](C(C)C)NC(=O)CNC(=O)[C@@H]2CSSC[C@@H]3NC(=O)[C@H](CCCNC(=N)N)NC(=O)CNC(=O)[C@H](CSSC[C@H](N)C(=O)N[C@@H](CCCNC(=N)N)C(=O)N[C@@H](CO)C(=O)N[C@@H](CO)C(=O)NCC(=O)N[C@@H](CO)C(=O)N4C[C@H](O)C[C@H]4C(=O)N2)NC(=O)[C@H](CSSC[C@@H](C(=O)N[C@H](C(N)=O)[C@@H](C)O)NC(=O)[C@H](CCCCN)NC(=O)CNC(=O)[C@H](CCCNC(=N)N)NC(=O)[C@H](Cc2ccc(O)cc2)NC3=O)NC1=O [SNX-157] (H-CRSSGS[Hyp]CGVTSICCGRCYRGKCT-NH2; disulfide 1-15, 8-18, 14-23)
IC50 for calcium current (in words): not measurable within the range of concentrations tested
